From paper PMC6394990, “Detailed characterization of the solution kinetics and thermodynamics of biotin, biocytin and HABA binding to avidin and streptavidin” (PLoS ONE, 2019)
Read-outs that look alike come from different tables or passages of the source.

Molecular target: T1, avidin (AV) (Gallus gallus, UniProt P02701)
T1 construct: purchased Calbiochem (La Jolla, CA)
Test: Stopped-flow association kinetics of dye-labeled biotin probes binding to avidin (F(t), rF(t); Arrhenius plots/global fitting)
Parameters: ln(k) / dS+ / dG+ / Eon for BFl / b of the line y = m1x+b1: unit not given here
Conditions: for k(average): k (full value)
In short: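 Stopped-flow mixing of 20 nM dye-labeled biotin probe with 260–1040 nM avidin (or 200–800 nM SAV) in Tris/KCl/MgCl2/CaCl2 buffer, pH 8 (AV-BcO also pH 9, 10), at 10–25°C. 488 nm laser excitation, 520 nm emission; normalized fluorescence and anisotropy traces globally fitted to discriminate reaction models.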

T1 sequence (P02701 25-152): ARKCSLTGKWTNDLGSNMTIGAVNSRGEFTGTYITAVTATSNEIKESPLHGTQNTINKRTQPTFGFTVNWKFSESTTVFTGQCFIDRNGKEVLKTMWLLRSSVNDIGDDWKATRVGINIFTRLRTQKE

## O=C(CCCC[C@@H]1SC[C@@H]2NC(=O)N[C@@H]21)NCCNC(=O)c1ccc(-c2c3ccc(=O)cc-3oc3cc(O)ccc23)c(C(=O)O)c1 [BFl, Biotin-4-fluorescein]
25°C and pH 8 vs 25°C and pH 5
  kon fold slower than Green's 7 × 10^7 M^-1s^-1: 3.8 X
AV
  fold by which the SPR kon (ref 20) is slower than the kon of the probe: ~ 9 X
AV, 25°C, read-out: kon
  kon: ~1.9e+07 M⁻¹ s⁻¹
AV, pH 8
  Ea^Forward: 14.6 ± 0.6 kcal/mol
AV, pH8, 10 (283.15 K)
  ln(k): 15.4
  k(average): 4.86E+06
AV, pH8, 10 (283.15 K), k (scaled)
  kon: 4.9e+06 M⁻¹ s⁻¹
AV, pH8, 15 (288.15 K)
  ln(k): 15.8
  k(average): 7.60E+06
AV, pH8, 15 (288.15 K), k (scaled)
  kon: 7.6e+06 M⁻¹ s⁻¹
AV, pH8, 20 (293.15 K)
  ln(k): 16.2
  k(average): 1.07E+07
AV, pH8, 20 (293.15 K), k (scaled)
  kon: 1.07e+07 M⁻¹ s⁻¹
AV, pH8, 25 (298.15 K)
  ln(k): 16.7
  k(average): 1.85E+07
AV, pH8, 25 (298.15 K), k (scaled)
  kon: 1.85e+07 M⁻¹ s⁻¹
AV, pH 8, forward
  ΔG^ǂ: 4.2 ± 0.5 kcal/mol
  ΔS^ǂ: 34.9 ± 2.0 cal/°K·mol
AV, ph8
  slope (Arrhenius linear fit): -7342.9
AV, ph8, the values are: Ea forward
  kcal/mol (from Arrhenius slope): 14.6 kcal/mol
Enthalpy block, AV
  Eon for BFl: 14.4
pH 8, AV, pH 8, 10°C, read-out: kon
  kon: 4.86e+06 ± 600000 M⁻¹ s⁻¹
pH 8, AV, pH 8, 15°C, read-out: kon
  kon: 7.6e+06 ± 2e+06 M⁻¹ s⁻¹
pH 8, AV, pH 8, 20°C, read-out: kon
  kon: 1.07e+07 ± 1.6e+06 M⁻¹ s⁻¹
pH 8, AV, pH 8, 25°C, read-out: kon
  kon: 1.85e+07 ± 2e+06 M⁻¹ s⁻¹
